Results: patent publication US20260042764A1, “COMPOSITIONS AND METHODS FOR INHIBITION OF KRAS” (TheRas, Inc., priority 2022, published 2026)

Columns and labels:
[1] = target: T1, Avi-KRAS WT (2-169) GTP/RAF1 RBD-3xFLAG (51-131) (Homo sapiens, UniProt P01116); experiment: Raf1-KRAS WT-GTP disruption HTRF assay (Biological Example 3); assay type: binding; settings: KRAS WT, GTP-loaded
T1 construct: Avi-KRAS WT (2-169)
Method in brief: (§1)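 Each KRAS-GTP/RAF1 RBD complex at 50 nM, with 75 nM 3xFLAG-RAF1 RBD (51-131)-Avi, in 50 mM Tris pH 7.5, 100 mM NaCl, 5 mM MgCl2, 0.1% BSA, 0.01% Tween 20, 10% DMSO. Compounds titrated from 30 μM, 10-point 3x series; 1 h at room temperature with shaking. HTRF read, activity as percent of DMSO.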

[2] = test system: SW620 cells (KRAS G12V); experiment: Cell-based pERK HTRF assay in SW620 cell (Biological Example 4)
Method in brief: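 SW620 cells were treated for 4 h with compound in a 9-point half-log series from 1 μM top (0.25% DMSO), then lysed. Phospho-ERK was detected by HTRF with d2 and Eu cryptate antibodies after 4–24 h at room temperature, read at 615 nm emission.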

[3] = test system: GP2d cells (KRAS G12D); experiment: Cell-based pERK HTRF assay in GP2d cell (Biological Example 2); settings: GP2d (KRAS G12D) cells
Method in brief: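 HTRF read-out of pERK (excitation 320 nm, emission 615 nm) after lysates sat 4–24 h at room temperature with Eu cryptate and d2 antibodies.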

[4] = target: T2, Avi-KRAS G12V (2-169) GTP/RAF1 RBD-3xFLAG (51-131) (Homo sapiens, UniProt P01116, G12V); experiment: Raf1-KRAS G12V-GTP disruption HTRF assay (Biological Example 3); assay type: binding; settings: KRAS G12V, GTP-loaded
T2 construct: Avi-KRAS G12V (2-169)
Method in brief: as §1

[5] = target: T3, Avi-KRAS G12D (2-169) GTP/RAF1 RBD-3xFLAG (51-131) (Homo sapiens, UniProt P01116, G12D); experiment: Raf1-KRAS G12D-GTP disruption HTRF assay (Biological Example 3); assay type: binding; settings: KRAS G12D, GTP-loaded
T3 construct: Avi-KRAS G12D (2-169)
Method in brief: as §1

[6] = target: T4, Avi-KRAS G12C (2-169) GTP/RAF1 RBD-3xFLAG (51-131) (Homo sapiens, UniProt P01116, G12C); experiment: Raf1-KRAS G12C-GTP disruption HTRF assay (Biological Example 3); assay type: binding; settings: KRAS G12C, GTP-loaded
T4 construct: Avi-KRAS G12C (2-169)
Method in brief: as §1

[7] = Homo sapiens, SW-620, SW620 (KRAS G12V) cells

T2 sequence (P01116 2-169 isoform P01116-2 G12V): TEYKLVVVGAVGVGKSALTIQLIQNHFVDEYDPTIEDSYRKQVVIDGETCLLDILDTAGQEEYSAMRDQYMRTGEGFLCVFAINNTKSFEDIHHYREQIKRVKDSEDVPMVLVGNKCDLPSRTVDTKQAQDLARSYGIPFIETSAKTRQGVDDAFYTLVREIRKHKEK
T3 sequence (P01116 2-169 isoform P01116-2 G12D): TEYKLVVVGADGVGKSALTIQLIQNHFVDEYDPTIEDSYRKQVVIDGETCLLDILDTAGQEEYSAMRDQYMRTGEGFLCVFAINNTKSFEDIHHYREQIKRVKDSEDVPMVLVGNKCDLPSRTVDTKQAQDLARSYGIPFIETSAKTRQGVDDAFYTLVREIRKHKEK
T4 sequence (P01116 2-169 isoform P01116-2 G12C): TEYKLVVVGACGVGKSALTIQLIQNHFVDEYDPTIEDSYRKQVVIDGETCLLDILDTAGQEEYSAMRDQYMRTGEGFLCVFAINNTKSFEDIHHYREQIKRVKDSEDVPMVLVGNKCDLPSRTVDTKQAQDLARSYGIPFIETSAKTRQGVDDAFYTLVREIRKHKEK
T1 sequence (P01116 2-169 isoform P01116-2): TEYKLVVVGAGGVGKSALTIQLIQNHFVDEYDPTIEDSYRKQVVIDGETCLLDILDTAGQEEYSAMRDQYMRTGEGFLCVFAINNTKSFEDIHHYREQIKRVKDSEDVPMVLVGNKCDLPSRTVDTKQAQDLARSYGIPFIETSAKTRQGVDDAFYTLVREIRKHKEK

Row | Compound | IC50 [1] [nM] | IC50 [2, 7] [nM] | IC50 ([3]; GP2d) [nM] | IC50 [4] [nM] | IC50 [5] [nM] | IC50 [6] [nM] | IC50 ([2]; SW620 (KRAS G12V) cells) [nM] | IC50 [3] [nM]
1 | CCN(c1nc(OC[C@@]23CCCN2C[C@H](F)C3)nc2c(F)c(-c3ccc(F)c4sc(N)c(C#N)c34)c(C(F)(F)F)cc12)[C@H]1CCN(C(=O)OC)[C@@H]1COC (atropisomer, axis not shown) [Compound 923] | 100 to 1000 | < 100 | < 100 | 100 to 1000 | 100 to 1000 | 1000 to 10000 | – | –
2 | CCN(c1nc(OC[C@@]23CCCN2C[C@H](F)C3)nc2c(F)c(-c3ccc(F)c4sc(N)c(C#N)c34)c(C(F)(F)F)cc12)[C@H]1CCN(C(C)=O)[C@@H]1COC (atropisomer, axis not shown) [Compound 924] | 100 to 1000 | < 100 | < 100 | 100 to 1000 | 100 to 1000 | 100 to 1000 | – | –
3 | CCN(c1nc(OC[C@@]23CCCN2C[C@H](F)C3)nc2c(F)c(-c3ccc(F)c4sc(N)c(C#N)c34)c(C(F)(F)F)cc12)[C@H]1CCN(C(=O)C2CC2)[C@@H]1COC (atropisomer, axis not shown) [Compound 925] | 100 to 1000 | < 100 | < 100 | 100 to 1000 | 100 to 1000 | 100 to 1000 | – | –
4 | CCN(c1nc(OC[C@@]23CCCN2C[C@H](F)C3)nc2c(F)c(-c3ccc(F)c4sc(N)c(C#N)c34)c(C(F)(F)F)cc12)[C@H]1C[C@H](C)N(C(=O)OC2COC2)C1 (atropisomer, axis not shown) [Compound 926] | 100 to 1000 | < 100 | < 100 | 100 to 1000 | 100 to 1000 | 100 to 1000 | – | –
5 | CCN(c1nc(OC[C@@]23CCCN2C[C@H](F)C3)nc2c(F)c(-c3ccc(F)c4sc(N)c(C#N)c34)c(C(F)(F)F)cc12)[C@H]1CCN(C(=O)c2nccs2)C1 (atropisomer, axis not shown) [Compound 927] | 100 to 1000 | < 100 | < 100 | 100 to 1000 | 100 to 1000 | 100 to 1000 | – | –
6 | CCN(c1nc(OC[C@@]23CCCN2C[C@H](F)C3)nc2c(F)c(-c3ccc(F)c4sc(N)c(C#N)c34)c(C(F)(F)F)cc12)[C@@H]1CCN(C(=O)[C@@H]2CCO2)[C@@H]1C (atropisomer, axis not shown) [Compound 931] | 100 to 1000 | < 100 | < 100 | 100 to 1000 | 100 to 1000 | 100 to 1000 | – | –
7 | CN(c1nc(OC[C@@]23CCCN2C[C@H](F)C3)nc2c(F)c(-c3ccc(F)c4sc(N)c(C#N)c34)c(C(F)(F)F)cc12)[C@H]1CC(=O)N2CCC[C@H]12 (atropisomer, axis not shown) [Compound 934] | 100 to 1000 | < 100 | < 100 | 100 to 1000 | 100 to 1000 | 100 to 1000 | – | –
8 | CN(Cc1cnoc1)c1nc(OC[C@@]23CCCN2C[C@H](F)C3)nc2c(F)c(-c3ccc(F)c4sc(N)c(C#N)c34)c(C(F)(F)F)cc12 (atropisomer, axis not shown) [Compound 935] | 100 to 1000 | < 100 | < 100 | 100 to 1000 | 100 to 1000 | 100 to 1000 | – | –
9 | CCN(c1nc(OC[C@@]23CCCN2C[C@H](F)C3)nc2c(F)c(-c3ccc(F)c4sc(N)c(C#N)c34)c(C(F)(F)F)cc12)[C@H]1C[C@H]2CN(C(C)(C)C)C(=O)N2C1 (atropisomer, axis not shown) [Compound 936] | 1000 to 10000 | < 100 | < 100 | 1000 to 10000 | 100 to 1000 | 1000 to 10000 | – | –
10 | CCN(c1nc(OC[C@@]23CCCN2C[C@H](F)C3)nc2c(F)c(-c3ccc(F)c4sc(N)c(C#N)c34)c(C(F)(F)F)cc12)[C@@H]1C=C[C@H](C(=O)N(C)C)C1 (atropisomer, axis not shown) [Compound 937] | 1000 to 10000 | < 100 | < 100 | 1000 to 10000 | 1000 to 10000 | 1000 to 10000 | – | –
11 | CCN(c1nc(OC[C@@]23CCCN2C[C@H](F)C3)nc2c(F)c(-c3ccc(F)c4sc(N)c(C#N)c34)c(C(F)(F)F)cc12)[C@H]1C=C[C@@H](C(=O)N(C)C)C1 (atropisomer, axis not shown) [Compound 938] | > 10000 | 100 to 1000 | < 100 | > 10000 | 1000 to 10000 | > 10000 | – | –
12 | CCN(c1nc(OC[C@@]23CCCN2C[C@H](F)C3)nc2c(F)c(-c3ccc(F)c4sc(N)c(C#N)c34)c(C(F)(F)F)cc12)[C@H]1CCN(C(=O)c2ncc(Cl)s2)C1 (atropisomer, axis not shown) [Compound 939] | 1000 to 10000 | < 100 | < 100 | 1000 to 10000 | 100 to 1000 | 1000 to 10000 | – | –
13 | CCN(c1nc(OC[C@@]23CCCN2C[C@H](F)C3)nc2c(F)c(-c3ccc(F)c4sc(N)c(C#N)c34)c(C(F)(F)F)cc12)[C@H]1C[C@H]2CN(CC(F)F)C(=O)N2C1 (atropisomer, axis not shown) [Compound 940] | 100 to 1000 | < 100 | < 100 | 100 to 1000 | 100 to 1000 | 100 to 1000 | – | –
14 | CCN(c1nc(OC[C@@]23CCCN2C[C@H](F)C3)nc2c(F)c(-c3ccc(F)c4sc(N)c(C#N)c34)c(C(F)(F)F)cc12)[C@@H]1CCN2C(=O)OC[C@H]12 (atropisomer, axis not shown) [Compound 941] | 1000 to 10000 | < 100 | < 100 | > 10000 | 1000 to 10000 | 1000 to 10000 | – | –
15 | CCN(c1nc(OC[C@@]23CCCN2C[C@H](F)C3)nc2c(F)c(-c3ccc(F)c4sc(N)c(C#N)c34)c(C(F)(F)F)cc12)[C@H]1C[C@H]2CN(CC(F)(F)F)C(=O)N2C1 (atropisomer, axis not shown) [Compound 951] | 100 to 1000 | < 100 | < 100 | 100 to 1000 | 100 to 1000 | 100 to 1000 | – | –
16 | CCN(c1nc(OC[C@@]23CCCN2C[C@H](F)C3)nc2c(F)c(-c3ccc(F)c4sc(N)c(C#N)c34)c(C(F)(F)F)cc12)[C@H]1CCN(C(=O)c2ccc(C#N)s2)C1 (atropisomer, axis not shown) [Compound 952] | 1000 to 10000 | < 100 | < 100 | 100 to 1000 | 100 to 1000 | 100 to 1000 | – | –
17 | CN(Cc1ncoc1C#N)c1nc(OC[C@@]23CCCN2C[C@H](F)C3)nc2c(F)c(-c3ccc(F)c4sc(N)c(C#N)c34)c(C(F)(F)F)cc12 (atropisomer, axis not shown) [Compound 953] | 1000 to 10000 | 100 to 1000 | < 100 | 1000 to 10000 | 100 to 1000 | 1000 to 10000 | – | –
18 | CCN(c1nc(OC[C@]23CCCN2C[C@H](F)C3)nc2c(F)c(-c3ccc(F)c4sc(N)c(C#N)c34)c(C(F)(F)F)cc12)[C@H]1CCN(C(=O)OC)C1 (atropisomer, axis not shown) [Compound 954] | 100 to 1000 | < 100 | < 100 | 100 to 1000 | ≤ 100 | 100 to 1000 | – | –
19 | CCN(c1nc(OC[C@]23CCCN2C[C@H](F)C3)nc2c(F)c(-c3ccc(F)c4sc(N)c(C#N)c34)c(C(F)(F)F)cc12)[C@H]1CCN(C(=O)OC)C1 (atropisomer, axis not shown) [Compound 955] | > 10000 | – | – | > 10000 | 1000 to 10000 | > 10000 | 100 to 1000 | < 100
20 | CCN(c1nc(OC[C@@]23CCCN2C[C@H](F)C3)nc2c(F)c(-c3ccc(F)c4sc(N)c(C#N)c34)c(C(F)(F)F)cc12)[C@H]1CCN(C(=O)c2ncc(C#N)s2)C1 (atropisomer, axis not shown) [Compound 956] | 1000 to 10000 | < 100 | < 100 | 100 to 1000 | 100 to 1000 | 100 to 1000 | – | –
21 | CCN(c1nc(OC[C@@]23CCCN2C[C@H](F)C3)nc2c(F)c(-c3ccc(F)c4sc(N)c(C#N)c34)c(C(F)(F)F)cc12)[C@H]1C[C@@H](C(=O)N(C)C)C1 (atropisomer, axis not shown) [Compound 957] | 1000 to 10000 | – | – | 1000 to 10000 | 100 to 1000 | 1000 to 10000 | < 100 | < 100
